Results from ChEMBL document CHEMBL5465560, “Selectivity Literature for EUbOPEN Chemogenomic Library” (2024).

Tests used:
[1] = target: Tyrosine-protein kinase Fgr (Homo sapiens) (UniProt P09769); assay: Selectivity interaction (KinomeScan (DiscoverX)) EUB0000092b FGR; conditions: at 10 µM
[2] = target: High affinity nerve growth factor receptor (Homo sapiens, UniProt P04629); assay: Selectivity interaction (KinomeScan (DiscoverX)) EUB0000655a NTRK1; conditions: at 10 µM
[3] = target: Ribosomal protein S6 kinase alpha-5 (Homo sapiens) (UniProt O75582); assay: Selectivity interaction (KinomeScan (DiscoverX)) EUB0000655a RPS6KA5; conditions: at 10 µM
[4] = target: Tyrosine-protein kinase SYK (Homo sapiens, UniProt P43405); assay: Selectivity interaction (Kinase panel (33PanQinase(R) Activity Assay)) EUB0000877a SYK
[5] = target: T1, cGMP-dependent protein kinase 1 (Homo sapiens) (UniProt Q13976); assay: Selectivity interaction (KinaseProfiler screening (Millipore)) EUB0000601a PRKG1; conditions: at 3 µM
T1 sequence (whole entry): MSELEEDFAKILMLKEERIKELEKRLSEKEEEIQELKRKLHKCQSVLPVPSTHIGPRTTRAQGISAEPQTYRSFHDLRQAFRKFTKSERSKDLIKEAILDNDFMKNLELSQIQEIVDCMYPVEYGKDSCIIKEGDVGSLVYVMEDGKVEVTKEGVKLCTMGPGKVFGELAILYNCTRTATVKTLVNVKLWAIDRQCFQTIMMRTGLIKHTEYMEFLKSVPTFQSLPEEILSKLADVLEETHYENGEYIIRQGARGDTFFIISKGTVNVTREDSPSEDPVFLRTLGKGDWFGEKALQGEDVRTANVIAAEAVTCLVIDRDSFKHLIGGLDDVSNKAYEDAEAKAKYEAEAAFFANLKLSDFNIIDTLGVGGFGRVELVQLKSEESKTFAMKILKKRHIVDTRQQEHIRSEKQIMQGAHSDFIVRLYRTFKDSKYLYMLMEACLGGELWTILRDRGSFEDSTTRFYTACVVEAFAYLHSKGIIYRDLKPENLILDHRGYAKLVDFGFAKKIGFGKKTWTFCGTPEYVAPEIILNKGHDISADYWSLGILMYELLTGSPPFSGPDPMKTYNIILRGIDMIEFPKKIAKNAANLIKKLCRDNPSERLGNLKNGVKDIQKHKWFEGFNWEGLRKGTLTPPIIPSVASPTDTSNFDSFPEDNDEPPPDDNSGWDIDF

[6] = target: T2, Ephrin type-A receptor 6 (Homo sapiens) (UniProt Q9UF33); conditions: at 10 µM
T2 sequence (whole entry): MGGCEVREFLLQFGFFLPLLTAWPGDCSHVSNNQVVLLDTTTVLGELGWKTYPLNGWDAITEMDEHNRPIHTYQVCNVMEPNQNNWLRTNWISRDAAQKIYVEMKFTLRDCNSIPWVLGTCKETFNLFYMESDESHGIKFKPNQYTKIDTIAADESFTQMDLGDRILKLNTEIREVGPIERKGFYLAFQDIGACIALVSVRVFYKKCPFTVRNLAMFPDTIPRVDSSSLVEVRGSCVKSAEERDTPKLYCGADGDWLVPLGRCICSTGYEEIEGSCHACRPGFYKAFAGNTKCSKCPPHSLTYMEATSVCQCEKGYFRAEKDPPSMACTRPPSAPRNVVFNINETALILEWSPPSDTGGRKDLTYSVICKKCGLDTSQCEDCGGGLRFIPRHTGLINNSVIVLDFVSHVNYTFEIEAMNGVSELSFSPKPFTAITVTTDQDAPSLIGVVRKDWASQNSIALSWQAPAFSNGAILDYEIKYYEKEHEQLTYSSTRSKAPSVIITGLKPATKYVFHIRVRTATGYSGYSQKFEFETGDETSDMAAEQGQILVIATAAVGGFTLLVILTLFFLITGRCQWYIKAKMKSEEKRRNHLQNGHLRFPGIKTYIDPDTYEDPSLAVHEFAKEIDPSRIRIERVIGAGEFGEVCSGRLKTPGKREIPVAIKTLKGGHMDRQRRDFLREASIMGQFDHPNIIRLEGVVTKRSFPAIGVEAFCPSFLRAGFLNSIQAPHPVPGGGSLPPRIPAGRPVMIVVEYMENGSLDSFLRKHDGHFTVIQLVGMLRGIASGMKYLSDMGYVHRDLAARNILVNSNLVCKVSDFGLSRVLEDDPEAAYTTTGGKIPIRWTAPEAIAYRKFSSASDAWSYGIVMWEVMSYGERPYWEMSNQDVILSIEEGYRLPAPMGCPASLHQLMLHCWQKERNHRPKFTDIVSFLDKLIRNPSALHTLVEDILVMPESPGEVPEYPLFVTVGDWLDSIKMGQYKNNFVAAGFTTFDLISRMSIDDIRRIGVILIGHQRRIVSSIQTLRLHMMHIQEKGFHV

[7] = target: Dual specificity tyrosine-phosphorylation-regulated kinase 1A (Homo sapiens, UniProt Q13627); assay: Selectivity interaction (Kinase panel (Z-LYTE Assay)) EUB0001632a DYRK1A; conditions: at 10 µM
[8] = test system: eIF-2-alpha kinase GCN2 (Homo sapiens), Q9P2K8 [S808G]; assay: Selectivity interaction (KinomeScan (DiscoverX)) EUB0000595a EIF2AK4; conditions: at 10 µM
[9] = target: Amine oxidase [flavin-containing] B (Homo sapiens, UniProt P27338); assay: Selectivity interaction (Eurofins safety panel) EUB0001564a MAOB; conditions: at 10 µM
[10] = target: Mitogen-activated protein kinase kinase kinase kinase 5 (Homo sapiens) (UniProt Q9Y4K4); assay: Selectivity interaction (KinomeScan (DiscoverX)) EUB0000618a MAP4K5; conditions: at 10 µM
[11] = target: T3, Serine/threonine-protein kinase NLK (Homo sapiens) (UniProt Q9UBE8); assay: Selectivity interaction (Ambit KINOMEscan and KiNATiv profiling in Jurkat cells) EUB0000090b NLK; assay type: cell-based; conditions: at 1 µM
T3 sequence (whole entry): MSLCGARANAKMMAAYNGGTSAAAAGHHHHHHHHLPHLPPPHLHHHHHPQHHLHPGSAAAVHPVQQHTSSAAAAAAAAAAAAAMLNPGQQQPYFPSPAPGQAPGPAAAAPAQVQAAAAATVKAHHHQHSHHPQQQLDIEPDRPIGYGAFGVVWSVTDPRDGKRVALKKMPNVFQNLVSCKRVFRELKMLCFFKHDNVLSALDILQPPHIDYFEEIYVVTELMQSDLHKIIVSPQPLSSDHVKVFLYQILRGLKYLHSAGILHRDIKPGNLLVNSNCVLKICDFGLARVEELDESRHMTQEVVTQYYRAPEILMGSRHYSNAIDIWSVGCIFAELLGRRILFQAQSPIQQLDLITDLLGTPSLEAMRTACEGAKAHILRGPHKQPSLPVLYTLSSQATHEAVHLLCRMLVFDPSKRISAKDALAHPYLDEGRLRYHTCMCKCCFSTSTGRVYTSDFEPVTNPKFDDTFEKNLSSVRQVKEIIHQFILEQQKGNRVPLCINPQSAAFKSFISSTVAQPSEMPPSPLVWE

[12] = target: Histone-lysine N-methyltransferase SETD2 (Homo sapiens) (UniProt Q9BYW2); conditions: at 10 µM
[13] = target: T1, cGMP-dependent protein kinase 1 (Homo sapiens); assay: Selectivity interaction (KinomeScan (DiscoverX)) EUB0001619a PRKG1; conditions: at 1 µM

High affinity nerve growth factor receptor, sequence (P04629 33-796 limits assumed): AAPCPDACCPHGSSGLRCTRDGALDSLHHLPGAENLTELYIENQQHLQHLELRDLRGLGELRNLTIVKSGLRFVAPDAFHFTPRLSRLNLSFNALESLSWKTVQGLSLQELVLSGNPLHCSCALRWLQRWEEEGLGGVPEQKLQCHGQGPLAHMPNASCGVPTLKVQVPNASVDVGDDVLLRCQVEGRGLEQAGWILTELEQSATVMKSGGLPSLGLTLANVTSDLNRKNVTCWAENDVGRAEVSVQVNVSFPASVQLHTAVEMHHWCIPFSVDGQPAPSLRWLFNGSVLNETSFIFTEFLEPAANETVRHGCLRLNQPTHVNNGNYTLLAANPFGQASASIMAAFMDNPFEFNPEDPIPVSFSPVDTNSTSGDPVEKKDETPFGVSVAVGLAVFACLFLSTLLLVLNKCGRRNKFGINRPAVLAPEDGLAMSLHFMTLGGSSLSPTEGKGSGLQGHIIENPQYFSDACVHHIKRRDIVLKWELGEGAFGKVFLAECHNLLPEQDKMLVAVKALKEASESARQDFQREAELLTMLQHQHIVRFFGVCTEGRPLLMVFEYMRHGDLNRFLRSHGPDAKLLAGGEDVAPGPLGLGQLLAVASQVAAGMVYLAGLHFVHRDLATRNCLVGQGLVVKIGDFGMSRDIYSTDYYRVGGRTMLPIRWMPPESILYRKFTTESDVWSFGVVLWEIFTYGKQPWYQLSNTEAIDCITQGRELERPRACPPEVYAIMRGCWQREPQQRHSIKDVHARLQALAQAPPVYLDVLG
Histone-lysine N-methyltransferase SETD2 (Homo sapiens), sequence (Q9BYW2 whole entry): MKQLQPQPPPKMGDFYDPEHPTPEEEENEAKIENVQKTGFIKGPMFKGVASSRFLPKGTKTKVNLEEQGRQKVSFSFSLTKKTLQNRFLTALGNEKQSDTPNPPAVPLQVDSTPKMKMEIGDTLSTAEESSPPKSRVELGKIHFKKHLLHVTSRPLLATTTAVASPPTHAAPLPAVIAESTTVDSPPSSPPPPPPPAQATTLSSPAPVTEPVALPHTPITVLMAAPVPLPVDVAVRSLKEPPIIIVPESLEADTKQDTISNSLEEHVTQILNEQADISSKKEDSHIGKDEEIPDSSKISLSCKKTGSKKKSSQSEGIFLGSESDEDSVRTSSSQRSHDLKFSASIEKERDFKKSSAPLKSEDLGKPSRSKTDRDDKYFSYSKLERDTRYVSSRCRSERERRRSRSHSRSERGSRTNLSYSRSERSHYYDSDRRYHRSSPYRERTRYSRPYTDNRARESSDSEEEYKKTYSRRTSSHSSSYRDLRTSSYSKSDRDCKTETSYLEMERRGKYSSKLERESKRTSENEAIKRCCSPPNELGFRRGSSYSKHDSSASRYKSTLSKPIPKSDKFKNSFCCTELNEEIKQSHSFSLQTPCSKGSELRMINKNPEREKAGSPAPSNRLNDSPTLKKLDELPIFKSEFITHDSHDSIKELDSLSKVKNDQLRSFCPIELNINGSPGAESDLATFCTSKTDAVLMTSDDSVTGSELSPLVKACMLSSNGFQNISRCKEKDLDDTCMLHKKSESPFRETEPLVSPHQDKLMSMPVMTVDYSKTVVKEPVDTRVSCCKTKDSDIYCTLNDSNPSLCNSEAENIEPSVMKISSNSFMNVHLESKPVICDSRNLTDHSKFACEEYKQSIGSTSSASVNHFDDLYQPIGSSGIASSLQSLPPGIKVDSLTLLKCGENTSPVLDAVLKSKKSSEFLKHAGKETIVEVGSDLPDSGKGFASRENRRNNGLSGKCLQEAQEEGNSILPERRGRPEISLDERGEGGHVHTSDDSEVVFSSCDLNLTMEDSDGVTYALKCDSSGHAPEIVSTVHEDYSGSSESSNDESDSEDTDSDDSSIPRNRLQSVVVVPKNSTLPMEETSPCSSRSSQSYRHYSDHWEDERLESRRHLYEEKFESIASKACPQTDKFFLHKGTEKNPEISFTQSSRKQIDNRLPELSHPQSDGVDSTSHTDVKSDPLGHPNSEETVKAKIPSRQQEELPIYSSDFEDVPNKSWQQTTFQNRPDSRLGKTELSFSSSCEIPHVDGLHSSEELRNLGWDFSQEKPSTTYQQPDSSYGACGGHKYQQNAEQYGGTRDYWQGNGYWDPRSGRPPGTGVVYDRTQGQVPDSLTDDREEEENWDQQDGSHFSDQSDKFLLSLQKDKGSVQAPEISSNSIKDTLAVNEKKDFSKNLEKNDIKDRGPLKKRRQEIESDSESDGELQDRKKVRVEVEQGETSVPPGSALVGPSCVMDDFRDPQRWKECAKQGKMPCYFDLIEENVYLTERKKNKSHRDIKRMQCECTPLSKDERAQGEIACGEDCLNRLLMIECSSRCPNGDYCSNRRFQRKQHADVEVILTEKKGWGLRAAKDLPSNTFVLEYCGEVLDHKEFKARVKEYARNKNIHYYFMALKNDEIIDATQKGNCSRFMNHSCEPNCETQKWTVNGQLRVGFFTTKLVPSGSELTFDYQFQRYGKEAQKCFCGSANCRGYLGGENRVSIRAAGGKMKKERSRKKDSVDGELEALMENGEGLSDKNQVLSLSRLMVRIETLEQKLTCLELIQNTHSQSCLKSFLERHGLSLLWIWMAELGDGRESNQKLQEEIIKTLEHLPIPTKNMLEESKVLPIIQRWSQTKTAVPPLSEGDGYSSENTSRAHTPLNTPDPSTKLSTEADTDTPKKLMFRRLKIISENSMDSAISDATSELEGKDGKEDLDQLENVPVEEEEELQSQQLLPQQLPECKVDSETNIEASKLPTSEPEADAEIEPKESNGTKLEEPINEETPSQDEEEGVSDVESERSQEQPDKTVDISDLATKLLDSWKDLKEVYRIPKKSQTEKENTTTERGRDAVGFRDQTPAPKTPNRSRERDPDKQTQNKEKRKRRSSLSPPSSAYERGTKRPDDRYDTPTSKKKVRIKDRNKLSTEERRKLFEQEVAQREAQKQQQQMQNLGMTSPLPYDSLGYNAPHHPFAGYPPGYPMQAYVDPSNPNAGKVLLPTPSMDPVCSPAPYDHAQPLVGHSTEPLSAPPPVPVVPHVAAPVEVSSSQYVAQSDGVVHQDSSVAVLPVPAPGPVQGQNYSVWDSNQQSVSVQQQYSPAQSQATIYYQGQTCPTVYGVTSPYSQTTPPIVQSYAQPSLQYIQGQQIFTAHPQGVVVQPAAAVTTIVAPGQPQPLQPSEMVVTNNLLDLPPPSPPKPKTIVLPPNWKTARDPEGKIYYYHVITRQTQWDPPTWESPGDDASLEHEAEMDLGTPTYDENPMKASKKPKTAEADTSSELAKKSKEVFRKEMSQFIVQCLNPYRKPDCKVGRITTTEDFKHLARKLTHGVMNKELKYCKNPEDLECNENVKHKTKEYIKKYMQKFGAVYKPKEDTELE
Tyrosine-protein kinase Fgr (Homo sapiens), sequence (P09769 2-529 limits assumed): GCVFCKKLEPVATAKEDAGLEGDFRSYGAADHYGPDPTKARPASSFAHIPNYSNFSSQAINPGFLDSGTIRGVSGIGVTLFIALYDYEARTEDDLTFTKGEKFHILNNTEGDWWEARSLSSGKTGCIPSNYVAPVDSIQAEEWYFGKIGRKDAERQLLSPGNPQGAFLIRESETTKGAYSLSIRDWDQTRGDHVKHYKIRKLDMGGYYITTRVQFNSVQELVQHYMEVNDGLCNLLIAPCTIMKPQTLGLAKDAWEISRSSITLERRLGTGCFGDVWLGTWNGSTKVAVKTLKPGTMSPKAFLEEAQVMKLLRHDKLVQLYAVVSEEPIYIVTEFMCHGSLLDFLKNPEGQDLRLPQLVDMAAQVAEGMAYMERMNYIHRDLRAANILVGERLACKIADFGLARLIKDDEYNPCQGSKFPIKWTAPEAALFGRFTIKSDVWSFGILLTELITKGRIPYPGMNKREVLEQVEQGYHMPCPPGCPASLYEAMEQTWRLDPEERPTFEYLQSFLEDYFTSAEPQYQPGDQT
Mitogen-activated protein kinase kinase kinase kinase 5 (Homo sapiens), sequence (Q9Y4K4 whole entry, looked up): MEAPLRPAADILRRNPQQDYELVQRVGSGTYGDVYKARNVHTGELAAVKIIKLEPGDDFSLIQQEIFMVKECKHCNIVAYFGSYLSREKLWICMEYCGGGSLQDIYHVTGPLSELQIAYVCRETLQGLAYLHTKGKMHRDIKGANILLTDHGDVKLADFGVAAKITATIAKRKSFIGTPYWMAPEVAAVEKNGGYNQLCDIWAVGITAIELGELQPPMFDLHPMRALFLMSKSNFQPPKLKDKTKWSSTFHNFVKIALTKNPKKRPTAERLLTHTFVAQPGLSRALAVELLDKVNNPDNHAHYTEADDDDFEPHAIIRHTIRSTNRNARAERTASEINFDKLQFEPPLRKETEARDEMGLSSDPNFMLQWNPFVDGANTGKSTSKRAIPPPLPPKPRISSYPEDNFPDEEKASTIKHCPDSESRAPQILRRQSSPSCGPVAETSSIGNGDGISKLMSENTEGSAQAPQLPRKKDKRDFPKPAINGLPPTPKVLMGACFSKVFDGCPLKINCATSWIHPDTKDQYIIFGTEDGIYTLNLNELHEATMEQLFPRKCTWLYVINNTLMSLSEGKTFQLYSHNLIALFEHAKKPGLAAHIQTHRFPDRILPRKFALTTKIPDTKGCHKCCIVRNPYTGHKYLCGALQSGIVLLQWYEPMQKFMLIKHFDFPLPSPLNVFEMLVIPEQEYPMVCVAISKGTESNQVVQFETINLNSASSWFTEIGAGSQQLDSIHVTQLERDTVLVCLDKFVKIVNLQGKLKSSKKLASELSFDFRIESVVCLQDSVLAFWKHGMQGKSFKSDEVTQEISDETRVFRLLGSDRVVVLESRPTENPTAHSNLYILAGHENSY

`CCC(=O)N1CCN(c2ccc(-n3c(=O)ccc4cnc5ccc(-c6cnc7ccccc7c6)cc5c43)cc2C(F)(F)F)CC1` showed a % of control [1] of 78%.
`CN(C)CCOc1ccc(-c2nc(-c3ccncc3)c(-c3ccc4c(c3)CC/C4=N\O)[nH]2)cc1` showed a % of control [2] of 90% and a % of control [3] of 90%.
For `CCC(=O)N1CC[C@H](Nc2ncnc3c2CN(c2cnc(OC)c(C(F)(F)F)c2)CC3)C1` [LENIOLISIB], the IC50 [4] was greater than 10 µM.
`CCc1cc(Nc2nccc(-c3c(-c4ccc(OC)c(C(=O)Nc5c(F)cccc5F)c4)nc4ccccn34)n2)c(OC)cc1N1CCC(N2CCN(S(C)(=O)=O)CC2)CC1` was tested, and the % of inhibition [5] was 41%.
With `Cc1cc([C@@H](C)Nc2ccccc2C(=O)O)c2nc(N3CCOCC3)cc(=O)n2c1` [AZD-6482] the % of control [6] was 100%.
Work on `Cn1cc(-n2cnc3c(NCc4nc5cc(Cl)c(Cl)cc5[nH]4)nc(N4CCOCC4)nc32)cn1` yielded a % of control [7] of -3.48%.
For `COCC(=O)NC/C=C/c1ccc2ncnc(Nc3ccc(Oc4ccc(C)nc4)c(C)c3)c2c1` [CP-724714], the % of control [8] was 81%.
`CC[C@@H](Nc1c(C#N)c(-c2ccc(-c3cccc(C)c3F)cc2)nc2cnccc12)C(=O)O` [BAY-091] was tested, and the “% of inhibition” value [9] was 81%.
In the case of `O[C@H]1CC[C@H](Nc2ncc3nc(Nc4c(F)cc(F)cc4F)n([C@H]4CCOC4)c3n2)CC1`, the % of control [10] is reported as 100%.
`CN(C)C/C=C/C(=O)Nc1ccc(C(=O)N2CCCC(Nc3ncc(Cl)c(-c4c[nH]c5ccccc45)n3)C2)cc1` (stereo not drawn) gave a % of control [11] of 52%.
For `CNCCN1CCC(c2cc(CN(C)C(=O)c3cccc(Oc4ccccc4)c3)ccn2)CC1`, the % activity [12] was greater than 90%.
Work on `N#Cc1cccc(-c2c[nH]c3ncnc(N4CCOCC4)c23)c1` yielded a % of control [13] of 99%.
